Assay results from patent US20230167064A1, “TREATMENTS OF INFLAMMATORY BOWEL DISEASE” (Aqilion AB, priority 2020, published 2023).
Entries after “also recorded” stand apart in the source; their conditions may differ.

Tests used:
[1] = test system: DSS model of Ulcerative Colitis using C57Bl/6 mice; assay: DSS model of Ulcerative Colitis in mice; format: in vivo; settings: 1 mg/kg daily oral, vs vehicle (and anti-TNFα antibody); for colitis clinical score: suspension in CMC-Na 2%, Day 9; for colon length: Day 10, experiment termination
Description: Ulcerative Colitis was modelled in C57Bl/6 mice by administering Dextran Sulphate Sodium (DSS) in drinking water (1.5% w/v) for 5 days. Mice were monitored daily for weight loss and clinical symptoms of disease for 10 days starting at the beginning of DSS administration.
The length and weight of the colon were also assessed.
Compared to naïve animals, animals given DSS water developed clinical signs of disease including weight loss and diarrhoea as well as gross pathological signs of disease on experiment termination. […] Shortened length and increased weight:length ratio indicates edema associated with ulcerative colitis.

[2] = test system: aryl hydrocarbon receptor (AhR); assay: Activation of AhR in colon of mice after oral dosing (qPCR of CYP1A1); format: in vivo, C57Bl/6 mice; settings: for Colon CYP1A1 (fold change over untreated) Mean / Liver CYP1A1 (fold change over untreated) Mean: day 14; for Colon CYP1A1 (fold change over untreated) Mean: qPCR normalized to GAPDH & ACTB
Description: The potential of Example compound 2 to activate the aryl hydrocarbon receptor (AhR) in the colon following oral administration was evaluated in a wild-type (WT) mice.
Species/Strain or Breed: C57Bl/6
On study day 0, animals were weighed and evenly distributed into treatment groups based on body weight. On study day 14, animals were asphyxiated via CO2 inhalation followed by cervical dislocation. The entire colon was removed, collected and prepared for qPCR analysis of CYP1A1 (Normalized to GAPDH & ACTB).
The Example compound 2 was formulated as a 0.1 mg/ml, 0.01 mg/ml or 0.001 mg/ml suspension with sodium carboxymethyl cellulose (1%, w/v).

[3] = test system: CD4+ adoptive transfer induced inflammatory bowel disease in mice; assay: CD4+ adoptive transfer induced inflammatory bowel disease in mice; format: in vivo, Fox Chase C.B-17 SCID mice; settings: 1 mg/kg daily, day 21 to 49; for inhibition of inflammation/edema associated with inflammatory bowel disease (anti-inflammatory effect in colon): Potassium Salt
Description: The efficacy of Example compound 2 in inhibiting inflammation/edema associated with inflammatory bowel disease was evaluated in a CD4+ adoptive transfer induced inflammatory bowel disease in mice.
Species/Strain or Breed: Fox Chase C.B-17 SCID & Balb/C
On study day −1, SCID mice were weighed and evenly distributed into treatment groups based on body weight.
On study day 0, Balb/C mice were terminated, and spleens obtained for CD4^+CD45RB^high cell isolation (Using SCID IBD Cell Separation Protocol). After cells were sorted and obtained, each animal in the treatment groups received an IP injection of CD4^+CD45RB^high cells at a minimum 4×10^5 cells (200 μl/mouse injections). A naïve group of mice was followed through the experiment without receiving the injection of cells. The naïve group comprised 5 animals.
On study day 21, treatment with Example compound 2 (1 mg/kg, daily day 21 to 49) was initiated. The compound was formulated as a 0.1 mg/mL suspension with sodium carboxymethyl cellulose (1%, w/v). Mice received either Example compound 2 or vehicle. Each of those groups comprised 10 animals.
On study day 49, animals were anesthetized with Isoflurane and bled to exsanguination followed by cervical dislocation. The entire colon was removed, measured, and weighed. The colon was analysed for its level of interferon-γ and IL-22. The inflammation in the colons was also scored by visual and histopathological assessments.

[4] = In vivo pharmacokinetic study in rats; parameters: species or system Sprague Dawley rats; settings: 1 mg/kg oral, rat plasma
Description: An in vivo pharmacokinetic study in rats was performed to determine if Example compound 2 can be absorbed and detected systemically after oral dosing. 4 male Sprague Dawley rats, approximately 225 g-250 g at dosing were dosed with 1 mg/kg of Example compound 2 formulated as a 0.1 mg/mL suspension with sodium carboxymethyl cellulose (1%, w/v). Blood samples were taken at 15 min, 30 min, 1 h, 2 h, 4 h, 6 h, 8 h and 24 h post dose At each blood sampling approximately 250 μL blood was sampled in K3EDTA vials and approximately 100 μL plasma was also prepared. The plasma samples were prepared by mixing 50 μL plasma with 250 μL of internal standard solution (20 ng/mL of phenacetin in ACN with 1% formic acid), mixed and centrifuged (20 min, 4000 rpm). Plasma samples were transferred to Waters Ostro 96-well plate and drawn through the plate by applying 6-8 psi positive pressure for 10 min. 100 μL of supernatant was further diluted with 50 μL UP water and sample was submitted to analysis. The standard and QC samples were prepared into blank rat colon homogenate and blank rat plasma. Standards were spiked into concentrations 0.1-10000 ng/mL of the analytes, QC samples into 3, 30, 300 and 3000 ng/mL, and were otherwise treated as samples.

Crohn's Disease = settings: reported in D'Haens et al. 2015 and WO 2011/014255; cited from earlier work

Compound: Cn1c(=O)c(C(=O)Nc2ccccc2)c(O)c2c(Cl)cccc21 [Example compound 1, 5-chloro-4-hydroxy-1-methyl-2-oxo-N-phenyl-quinoline-3-carboxamide]
- colitis clinical score [1]: significant reduction in colitis clinical score; also recorded: lower colitis score
- colitis clinical score ([1]; listed as DELAQ): protective effect against the development of the clinical symptoms of Ulcerative Colitis
- colon length [1]: significant increase in colon length; also recorded: greater colon length
- colon length ([1]; listed as DELAQ): effective at reducing colon shortening
- body weight change (% change from day 1 of experiment), weight loss [1]: reduced weight loss

Compound: Cn1c(=O)c(C(=O)Nc2ccccc2)c(O)c2c(Cl)cccc21.[K] [Example compound 2, 5-chloro-4-hydroxy-1-methyl-2-oxo-N-phenyl-quinoline-3-carboxamide Potassium Salt]
- Colon CYP1A1 (fold change over untreated) Mean ([2]; 0.01 mg/kg PO QD D0-13): 1.03 fold change over untreated
- Liver CYP1A1 (fold change over untreated) Mean ([2]; 0.01 mg/kg PO QD D0-13): 1.08 fold change over untreated
- Colon CYP1A1 (fold change over untreated) Mean ([2]; 0.1 mg/kg PO QD D0-13): 7.42 fold change over untreated
- Liver CYP1A1 (fold change over untreated) Mean ([2]; 0.1 mg/kg PO QD D0-13): 2.81 fold change over untreated
- Colon CYP1A1 (fold change over untreated) Mean ([2]; 1.0 mg/kg PO QD D0-13): 8.34 fold change over untreated
- Liver CYP1A1 (fold change over untreated) Mean ([2]; 1.0 mg/kg PO QD D0-13): 3.44 fold change over untreated
- CYP1A1 mRNA expression compared to untreated animals (AhR activation) ([2]; 1.0 and 0.1 mg/kg oral, WT mice): significant increase in CYP1A1 mRNA expression
- AhR activating effect, colon versus liver CYP1A1 increase ([2]; oral, increase in liver CYP1A1 lower than in colon): local AhR activating effect
- inhibition of inflammation/edema associated with inflammatory bowel disease (anti-inflammatory effect in colon) [3]: local anti-inflammatory effect in the colon
- colon level of inflammatory markers (interferon-γ and IL-22) ([3]; colon at day 49, vs vehicle): lower levels of inflammatory markers
- inflammation in the colons scored by visual and histopathological assessments ([3]; day 49, vs vehicle): fewer signs of inflammation
- inhibition of inflammation/edema associated with inflammatory bowel disease (anti-inflammatory effect in colon) ([3]; listed as potassium salt of DELAQ): effective in inhibiting inflammation/edema
- body weight (weight loss) ([3]; vs vehicle): less weight loss
- clearance from plasma [4]: rapidly cleared
- level in the plasma after oral dosing ([4]; 15 min to 24 h post dose): detected in the plasma

Compound: CCN(C(=O)c1c(O)c2c(Cl)cccc2n(C)c1=O)c1ccccc1 [laquinimod]
- benefit in treatment of Crohn's Disease (Crohn's Disease): beneficial for the treatment of Crohn's Disease
